Measurements published in patent US20210032257A1, “(E)-1-(4-(DIMETHYLAMINO)BUT-2-ENOYL)PYRROLIDIN-3-YL 4-((3-ISOPROPYL-5-METHYLPYRAZOLO[1,5-A]PYRIMIDIN-7-YL)AMINO)PIPERIDINE-1-CARBOXYLATE FOR INHIBITING CDK7” (Eli Lilly and Company, priority 2017, published 2021).

Legend:
[1] = test system: phospho-carboxyl terminal domain (Ser5) in HCT116 cells; assay: p-CTD (S5) cell based Acumen assay; conditions: Homo sapiens, HCT-116, 4 hours, read-out: Relative IC50 for pCTD Ser5
Protocol: HCT116 cells (ATCC CCL-247) are cultured in McCoy's 5A Medium Modified media supplemented with 10% FBS, 1% NaPyr and 1% Pen/Strep and plated (prior to becoming 70% confluent) in 96-well flat-bottom plates at a density of 5,000 cells per well in 100 μL volume. The cells are incubated overnight in a cell culture incubator (5% CO2, 95% Relative Humidity (RH) and 37° C.) and allowed to attach to the plate. The following morning, the cells are dosed with compounds. Compound inhibitors are solubilized at 60 μM in culture medium containing 0.6% DMSO. Subsequently compound serial dilutions (1:3) are prepared over a 60 μM to 0.003 μM range. […]
The following day cells are washed three times with PBS (100 μL/well) and incubated with 50 μL/well of secondary antibody (1:2000 dilution, Goat anti-rabbit IgM ALEXA FLUOR™ 488) in PBS for 1 hour at room temperature. […] Plates are analyzed on Acumen on FL2 (mean intensity), and FL3 (total intensity). Fluorescence plates are scanned with ACUMEN EXPLORER™ [Laser-scanning fluorescence microplate cytometer manufactured by TTP LABTECH LTD] to measure anti-phospho-carboxyl terminal domain at Serine 5 (pCTD). […] The IC50 is determined by curve fitting to a four parameter logistic for each output using GENE DATA™.

[2] = test system: LI7; assay: Biomarker study proliferation (CellTiter-Glo); assay type: cell-based
Protocol: (§1) Cancer cell lines are profiled to evaluate the anti-proliferative activity of a test compound in-vitro. Mutation, copy number and gene expression information of ARID1A, KMT2C, KMT2D and/or RB1 genes across cancer cell lines is obtained from COSMIC database (cancer.sanger.ac.uk) and cBioportal (http://www.cbioportal.org/). Cells are cultured in growth medium and plated into a 96-well plate in 100 μL/well growth medium at 5000 cells/well then incubated at 37° C., 5% CO2 overnight. Cells are cultured using supplier recommended media and conditions well known in the art, for example with RPMI 1640 with or without HEPES & L-Glutamine (Thermo SH30255.01) and 1 mM Sodium Pyruvate, and 10% FBS(Gibco cat #10082). The 1000× intermediate dilution plate is prepared by making a 10 mM working solution of a test sample in DMSO and performing 1:3 dilutions in DMSO for 10 points. The 10× dosing plate is prepared by adding 2 μL from the 1000× intermediate dilution plate to 198 μL of OPTIMEM®+10% FBS and mixing well. The cell plate is then treated by adding 11 μL from the 10× dosing plate into the 100 μL/well cell plate for a 1× final concentration. Staurosporine is used as a maximum growth inhibition control at a final concentration of 5 μM. The cell plate is incubated for 7 days at 37° C., 5% CO2. Seven days after treatment, Cell Titer-Glo® (Promega cat #G7571) assay buffer and substrate are removed from −20° C. and allowed to equilibrate to RT. Assay buffer is added to the substrate and swirled gently to mix. The CELL TITER-GLO® reagent (100 μL/well) is added to the cell plate and incubated at RT for 15 minutes. After 15 minutes, luminescence is read using a plate reader. Data is analyzed in Excel and graphed in GraphPad Prism. Statistical analysis and p value is calculated using Mann-Whitney nonparameteric t tests using GraphPad Prism.
(§2) Anti-proliferative effects of a test compound are categorized as insensitive (IC50≥1 μM), cytostatic (IC50<1 μM and % inhibition <70%) or cytotoxic (IC50<1 μM and % inhibition ≥70%).

[3] = test system: NCIH1155; assay: Biomarker study proliferation (CellTiter-Glo); assay type: cell-based
Protocol: as §1, §2

[4] = test system: SH10TC; assay: Biomarker study proliferation (CellTiter-Glo); assay type: cell-based
Protocol: as §1, §2

[5] = test system: SKUT1; assay: Biomarker study proliferation (CellTiter-Glo); assay type: cell-based
Protocol: as §1, §2

[6] = test system: SNU16; assay: Biomarker study proliferation (CellTiter-Glo); assay type: cell-based
Protocol: as §1, §2

[7] = test system: TYKNU; assay: Biomarker study proliferation (CellTiter-Glo); assay type: cell-based
Protocol: as §1, §2

[8] = test system: UACC812; assay: Biomarker study proliferation (CellTiter-Glo); assay type: cell-based
Protocol: as §1, §2

Cc1cc(NC2CCN(C(=O)O[C@H]3CCN(C(=O)/C=C/CN(C)C)C3)CC2)n2ncc(C(C)C)c2n1 [Example 1, [(3S)-1-[(E)-4-(dimethylamino)but-2-enoyl]pyrrolidin-3-yl] 4-[(3-isopropyl-5-methyl-pyrazolo[1,5-a]pyrimidin-7-yl)amino]piperidine-1-carboxylate]
IC50 [1]: 140 nM
Anti-proliferation effect % Inh. ([2]; LI7, LIVER, 7 days): 76%
Anti-proliferation effect Outcome ([2]; LI7, LIVER, 7 days): Cytotoxic (cytotoxic (IC50<1 μM and % inhibition ≥70%))
IC50 ([2]; Li-7, 168 h, read-out: Anti-proliferation effect IC50): 132 nM
IC50 ([3]; Homo sapiens, NCI-H1155, 168 h, read-out: Anti-proliferation effect IC50): 43 nM
Anti-proliferation effect % Inh. ([3]; NCIH1155, LUNG, 7 days): 51%
Anti-proliferation effect Outcome ([3]; NCIH1155, LUNG, 7 days): Cytostatic (cytostatic (IC50<1 μM and % inhibition <70%))
Anti-proliferation effect % Inh. ([4]; SH10TC, STOMACH, 7 days): 58%
Anti-proliferation effect Outcome ([4]; SH10TC, STOMACH, 7 days): Cytostatic (cytostatic (IC50<1 μM and % inhibition <70%))
IC50 ([4]; SH-10-TC, 168 h, read-out: Anti-proliferation effect IC50): 147 nM
IC50 ([5]; Homo sapiens, SK-UT-1, 168 h, read-out: Anti-proliferation effect IC50): 41 nM
Anti-proliferation effect % Inh. ([5]; SKUT1, SOFT TISSUE, 7 days): 89%
Anti-proliferation effect Outcome ([5]; SKUT1, SOFT TISSUE, 7 days): Cytotoxic (cytotoxic (IC50<1 μM and % inhibition ≥70%))
IC50 ([6]; Homo sapiens, SNU-16, 168 h, read-out: Anti-proliferation effect IC50): 17 nM
Anti-proliferation effect % Inh. ([6]; SNU16, STOMACH, 7 days): 84%
Anti-proliferation effect Outcome ([6]; SNU16, STOMACH, 7 days): Cytotoxic (cytotoxic (IC50<1 μM and % inhibition ≥70%))
IC50 ([7]; 168 h, read-out: Anti-proliferation effect IC50): 72 nM
Anti-proliferation effect % Inh. ([7]; TYKNU, OVARY, 7 days): 83%
Anti-proliferation effect Outcome ([7]; TYKNU, OVARY, 7 days): Cytotoxic (cytotoxic (IC50<1 μM and % inhibition ≥70%))
IC50 ([8]; Homo sapiens, UACC-812, 168 h, read-out: Anti-proliferation effect IC50): 76 nM
Anti-proliferation effect % Inh. ([8]; UACC812, BREAST, 7 days): 58%
Anti-proliferation effect Outcome ([8]; UACC812, BREAST, 7 days): Cytostatic (cytostatic (IC50<1 μM and % inhibition <70%))
